ChEMBL document CHEMBL3637782, “GSK Tres Cantos Follow-up TB Screening Data” (2016)
≈ marks a conversion by molar mass, not a printed value.

Legend:
[1] = tested on: Mycobacterium tuberculosis H37Rv; test: GSK_TB: Inhibition of the intracellular growth of Mycobacterium tuberculosis (pXC50); type: functional, ATCC25618
[2] = tested on: Mycobacterium tuberculosis H37Rv; test: GSK_TB: Minimum inhibitory concentration against H37Rv stain of Mycobacterium tuberculosis using MABA method; type: functional; settings: ATCC25618
[3] = GSK_TB: AVG_CHROM_LOGP; type: physicochemical
HepG2 = test: GSK_TB: The cytotoxicity against HepG2 cells expressed as IC50; type: functional, cell-based; settings: Homo sapiens
[4] = GSK_TB: Kinetic solubility of the compound in phosphate buffered saline at pH 7.4 after 1 hr by CLND method; type: physicochemical
[5] = GSK_TB: Lipophilicity, log D of the compound at pH 7.4 by ChromlogD analysis; type: physicochemical; settings: buffer

| Structure (SMILES) | pXC50 [1] | MIC [2] [µM] | Lipophilicity [3] | IC50 (HepG2) [µM] | solubility kinetic at 1 h [4] [µg/mL] | Lipophilicity [5] |
| --- | --- | --- | --- | --- | --- | --- |
| CCCC/C=C/c1cc2ccncc2cc1OC1CCNCC1 | 5.9 | 1.6 (≈ 0.497 µg/mL) | 7.3475 | 16 | 36 (≈ 116 µM) | 3.61 |
| O=C(NCc1ccco1)N1CCN(Cc2ccc(Cl)s2)CC1 | 5.6 | 2 (≈ 0.68 µg/mL) | 4.8996 | > 100 | 98 (≈ 288 µM) | 4.82 |
| NCC(c1cccs1)S(=O)(=O)c1ccccc1 (configuration not stated) |  | 2 (≈ 0.535 µg/mL) | 2.5334 | 32 | ≥ 134 | 2.5 |
| NS(=O)(=O)c1ccc(Nc2cnc3ccccc3n2)cc1 | <4.3 | 2 (≈ 0.601 µg/mL) | 2.5171 | > 100 | 112 (≈ 373 µM) | 1.07 |
| CNc1snc(C)c1C(=O)NCCOc1ccc(OC)cc1 | 5.7 | 2.5 (≈ 0.804 µg/mL) | 4.2469 | > 100 | 121 (≈ 376 µM) | 4.24 |
| Nc1ccc(C(O)CNCCc2ccccc2)cc1O (configuration not stated) | 4.97 | 2.9 (≈ 0.79 µg/mL) | 1.7338 | 50 | 53 (≈ 195 µM) | 0.97 |
| O=C(Nc1nc2c(s1)CCCc1cccnc1-2)c1ccccc1C(F)(F)F | 6.2 | 3.7 (≈ 1.44 µg/mL) | 5.2587 | 79 | 9 (≈ 23.1 µM) | 5.26 |
| NC(=O)c1ccc(CN(C2CC2)S(=O)(=O)c2ccccc2F)cc1 | 6.7 | 3.75 (≈ 1.31 µg/mL) | 3.79 | > 100 | 133 (≈ 382 µM) | 3.75 |
| NC(=O)c1cc2ccc(CC(=O)c3cccs3)cc2s1 | 6 | 3.8 (≈ 1.15 µg/mL) | 3.7247 | > 100 | 8 (≈ 26.5 µM) | 3.62 |
| Clc1nnc(N2CCCC2)c2ccccc12 | 5.8 | 4 (≈ 0.935 µg/mL) | 4.4101 | > 100 | ≥ 100 | 4.41 |
| Cc1nc(Nc2cnn(Cc3ccccc3F)c2)c2nn(C)c(C)c2n1 | 6 | 4 (≈ 1.41 µg/mL) | 3.4146 | > 100 | 23 (≈ 65.5 µM) | 3.41 |
| CCOCn1ccc(NS(=O)(=O)c2ccc(N)cc2)nc1=O | 4.9 | 4.7 (≈ 1.52 µg/mL) | 0.7057 | > 100 | 52 (≈ 160 µM) | 0.66 |
| FC(F)(F)Oc1ccc(-c2cc3ccncc3cc2OC2CCNCC2)cc1 | 5.5 | 5 (≈ 1.94 µg/mL) | 6.8742 | 16 | 82 (≈ 211 µM) | 3.47 |
| CCCCNCC1COc2ccc(OC)cc2C1=O (configuration not stated) | 5.3 | 5 (≈ 1.32 µg/mL) | 5.6014 | 12 | 118 (≈ 448 µM) | 2.99 |
| COc1ccc(Nc2nc(N[C@@H]3CCNC3)nc3cc[nH]c(=O)c23)cc1NC(=O)c1ccccc1 | 5.5 | 5 (≈ 2.36 µg/mL) | 3.1698 | 25 | 106 (≈ 226 µM) | 2.41 |
| N#Cc1ncn(-c2ccc3nnc(C(F)(F)F)n3n2)n1 | <4.3 | 5 (≈ 1.4 µg/mL) | 3.3167 | > 100 | ≥ 105 | 3.31 |

| Structure (SMILES) | pXC50 [1] | MIC [2] [µM] | Lipophilicity [3] | IC50 (HepG2) [µM] | solubility kinetic at 1 h [4] [µg/mL] | Lipophilicity [5] |
| --- | --- | --- | --- | --- | --- | --- |
| Cn1cc(CCNC(=O)Nc2ccc(N3CCCCC3)nc2)cn1 | 4.7 | 5 (≈ 1.64 µg/mL) | 2.974 | > 100 |  | 2.97 |
| CC(C)N(C(=O)CNc1ccccc1Nc1ccccc1)c1ccccc1 | 5.7 | 5.6 (≈ 2.01 µg/mL) | 8.1308 | 50 | 8 (≈ 22.3 µM) | 7.73 |
| COc1ccc(Nc2ncccc2N)cc1 | 6.2 | 5.6 (≈ 1.21 µg/mL) | 1.44 | 63 | 18 (≈ 83.6 µM) | 1.45 |
| Fc1ccc(Cc2nnc(-c3ccnc(Nc4ccc(OCCN5CCOCC5)cc4)n3)[nH]2)cc1 | 5.8 | 5.6 (≈ 2.66 µg/mL) | 3.8389 | 40 | 69 (≈ 145 µM) | 3.84 |
| CC1CC1c1ccc(CN2CCc3nc(Nc4ccccc4)sc3CC2)o1 (configuration not stated) |  | 5.6 (≈ 2.13 µg/mL) | 8.1798 | 40 | 54 (≈ 142 µM) | 7.64 |
| Cc1ccc2oc(SCC(=O)Nc3nccs3)nc2n1 | <4.3 | 5.6 (≈ 1.72 µg/mL) | 3.0066 | 40 | 31 (≈ 101 µM) | 3.01 |
| COC(=O)c1ccc(Oc2ccc(-c3csc(C)n3)cc2F)nn1 | <4.3 | 5.6 (≈ 1.93 µg/mL) | 4.8996 | > 100 | 17 (≈ 49.2 µM) | 4.83 |
| CC(C)c1noc(N2CCC([C@H](C)Oc3cnc(-c4ccc(S(C)(=O)=O)c(F)c4)cn3)CC2)n1 | 5.2 | 6 (≈ 2.94 µg/mL) |  | 25 | 13 (≈ 26.6 µM) | 6.69 |
| COc1ccc(CCNC(=O)C2(n3cnnn3)CCCCC2)cc1 | 5.7 | 8 (≈ 2.64 µg/mL) | 3.1698 | > 100 | ≥ 226 | 2.43 |
| O=C(O)CCc1nc2ccccc2oc1=O | <4.3 | 8 (≈ 1.75 µg/mL) | 2.3212 | > 100 | 63 (≈ 287 µM) | 0.04 |
| CCCCc1ccc(C(=O)Nc2nnc(S(=O)(=O)CCCC)s2)nc1 | 5.6 | 10 (≈ 3.83 µg/mL) | 7.3965 | 20 | 1.5 (≈ 3.92 µM) | 6.01 |
| N#Cc1cccc(-c2ccc(NC[C@H]3CC[C@]4(CC3)CN(c3cccnn3)C(=O)O4)nc2)c1 | 5.6 | 10 (≈ 4.41 µg/mL) | 4.9649 | 40 | 11 (≈ 25 µM) | 4.96 |
| CCOc1cc2ccccc2cc1C(=O)NC | 5.3 | 10 (≈ 2.29 µg/mL) | 4.6549 | > 100 | 64 (≈ 279 µM) | 4.43 |
| Cc1ccc2c(c1)c(=O)cc(C(F)(F)F)n2CCNC(=O)c1ccccn1 | 5.6 | 10 (≈ 3.75 µg/mL) | 6.1236 | > 100 | 6 (≈ 16 µM) | 5.84 |
| Fc1cccc(Oc2cc(C3CCCNC3)nc(-c3ccncc3)n2)c1 (configuration not stated) |  | 10 (≈ 3.5 µg/mL) | 5.1281 | 50 | 64 (≈ 183 µM) | 2.9 |
| Cc1c(C(=O)NCCOc2ccccc2)[nH]c2c1C(=O)CCC2 | 5 | 10 (≈ 3.12 µg/mL) | 3.8226 | 100 | 46 (≈ 147 µM) | 3.62 |
